Patent publication US20230295141A1, “FXR SMALL MOLECULE AGONIST, THE PREPARATION AND USE THEREOF” (Cascade Pharmaceuticals, Inc., priority 2022, published 2023)
Like-named read-outs stand apart in the source and are kept apart here.

Molecular target: T1, FXR (Homo sapiens, UniProt Q96RI1)
T1 construct: expressed in transfected cells; host or cells: HEK293T
T1 sequence (Q96RI1 212-476 isoform Q96RI1-1 limits assumed): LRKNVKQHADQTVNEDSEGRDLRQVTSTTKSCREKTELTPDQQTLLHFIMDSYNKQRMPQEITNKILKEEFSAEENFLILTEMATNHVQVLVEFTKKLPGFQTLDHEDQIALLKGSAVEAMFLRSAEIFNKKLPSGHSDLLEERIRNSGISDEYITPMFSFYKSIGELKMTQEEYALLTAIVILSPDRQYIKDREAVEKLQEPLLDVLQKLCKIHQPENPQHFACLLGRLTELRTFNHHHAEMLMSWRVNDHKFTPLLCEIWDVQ
Assay: FXR agonistic activity by GAL4-FXR-LBD reporter gene (Dual-Glo luciferase) detection in HEK293T cells
Format: cell-based
Excerpt: Methods for Detecting FXR Agonistic Activity of Compounds Based on Reporter Gene Activity Detection Methods: The pGAL4-FXR-LBD and pG5-Luc plasmids used in the reporter gene detection system were constructed according to conventional molecular cloning methods, including main steps: the FXR (NM_001206979.2) cDNA sequence corresponding to the amino acid sequence of FXR-LBD (212-476AA) was inserted into pGAL4 vector between BamHI and Notl restriction sites using PCR technology to obtain pGAL4-FXR-LBD; pG5-Luc and phRL-TK plasmids were donated by Shanghai Institute of Materia Medica, Chinese Academy of Sciences; the plasmid was transformed into DH5a Escherichia coli by the CaC12 method, and after further culture and amplification, the corresponding plasmid DNA was purified and obtained with a plasmid extraction kit (TIANGEN, #D107). HEK293T cells were seeded in 96-well plates at a density of 1×10^4/well one day before plasmid transfection. Cell transfection was performed according to the instructions of the transfection reagent FuGENE® HD (Promega, #E2311), including main steps: […] 0.25 uL of FuGENE® HD was added, mixed well and let stand for 5 min at room temperature; then 10 uL of this mixture was added to the cell well containing 100 uL of culture medium. […] Then the diluted compounds were added to the cell culture medium for treatment for 24 h. 2 duplicate wells were set up in total. […] After cells were treated with compounds for 24 h, detections were performed according to the instructions of the Dual-Glo® Luciferase Assay System (Promega, #E2940), including main steps: […] then 40 uL of Dual-Glo® Stop & Glo® reagent were added and shaken at room temperature for 10 min; the luminescence signal value of Renilla luciferase (Renilla-Luc) was detected by the MD i3x multifunctional microplate reader; The ratio of Firefly-Luc/Renilla-Luc was used as the activating activity of the compound on FXR, and normalized by the ratio of the solvent DMSO group. The dose- response curves were fitted with four parameters using GraphPad Prism 6.0 software, and EC50 values were calculated.

[1] = HEK293T cells, pGAL4-FXR-LBD/pG5-Luc reporter, 24 h treatment, read-out: Cellular Level Activity EC50(nM) of FXR
[2] = HEK293T reporter gene assay, read-out: EC50 values (FXR agonistic activity)
[3] = Cellular Level Activity EC50(nM) of FXR, HEK293T cells, pGAL4-FXR-LBD/pG5-Luc reporter, 24 h treatment
[4] = EC50 values (FXR agonistic activity), HEK293T reporter gene assay

EC50 [1] [nM]	Structure (SMILES)	EC50 [3] [nM]	other results
< 5	[2H]C([2H])(O[C@H]1C[C@H]2CC[C@@H](C1)N2c1ccc(-c2noc(=O)[nH]2)nc1)c1c(-c2c(Cl)cccc2Cl)noc1C1CC1 [Example 2]	–	EC50 [2]: < 5 nM
–	[2H]C(O[C@H]1C[C@H]2CC[C@@H](C1)N2c1ccc(-c2noc(=O)[nH]2)c(F)c1)c1c(-c2c(Cl)cccc2Cl)noc1C1CC1 (stereo partly drawn) [Example 4]	< 5	EC50 [4]: < 5 nM
5 to 10	[2H]C([2H])(O[C@H]1C[C@H]2CC[C@@H](C1)N2c1ccc(-c2noc(=O)[nH]2)c(OC)c1)c1c(-c2c(Cl)cccc2Cl)noc1C1CC1 [Example 6]	–	–
–	[2H]C([2H])(O[C@H]1C[C@H]2CC[C@@H](C1)N2c1ccc(-c2noc(=O)[nH]2)c(F)c1)c1c(-c2c(Cl)cccc2Cl)noc1C1CC1 [Example 3]	< 5	EC50 [4]: < 5 nM; FXR agonistic / cellular level activity, in words (HEK293T reporter gene assay, comparison with LJN452 and Control 1): significantly improved activity
5 to 10	[2H]C([2H])(O[C@H]1C[C@H]2CC[C@@H](C1)N2c1ccc(-c2noc(=O)[nH]2)c(F)c1)c1c(-c2ccccc2C(F)(F)F)noc1C1CC1 [Example 8]	–	–
< 5	[2H]C([2H])(O[C@H]1C[C@H]2CC[C@@H](C1)N2c1ccc(-c2noc(=O)[nH]2)cc1)c1c(-c2c(Cl)cccc2Cl)noc1C1CC1 [Example 1]	–	EC50 [2]: < 5 nM
5 to 10	[2H]C([2H])(O[C@H]1C[C@H]2CC[C@@H](C1)N2c1ccc(-c2noc(=O)[nH]2)c(C)c1)c1c(-c2c(Cl)cccc2Cl)noc1C1CC1 [Example 5]	–	–
5 to 10	[2H]C([2H])(O[C@H]1C[C@H]2CC[C@@H](C1)N2c1ccc(-c2noc(=O)[nH]2)c(C(F)(F)F)c1)c1c(-c2c(Cl)cccc2Cl)noc1C1CC1 [Example 7]	–	–
–	O=c1[nH]c(-c2ccc(N3[C@@H]4CC[C@H]3C[C@@H](OCc3c(-c5c(Cl)cccc5Cl)noc3C3CC3)C4)cc2F)no1 [Control 1, reference compound]	5 to 10	–
5 to 10	[2H]C([2H])(O[C@H]1C[C@H]2CC[C@@H](C1)N2c1ccc(-c2noc(=O)[nH]2)c(F)c1)c1c(-c2ccccc2OC(F)(F)F)noc1C1CC1 [Example 9]	–	–
